Source: patent publication US20040147561A1, “Pyrid-2-one derivatives and methods of use” (priority 2002, published 2004)

Experiment: Cell proliferation assay (BrdU incorporation)
Type: cell-based
Details: Homo sapiens, 48 h incubation, cell line not given, read-out: inhibited proliferation IC50
Experimental: Cell proliferation was measured using a colorimetric immunoassay (B/M Roche #164 7229), based on the measurement of pyrimidine analog BrdU incorporation during DNA synthesis in proliferating cells. Cells, e.g., human PC-3 prostate carconima cells, huFSF normal human foreskin fibroblast cells, HCT 116 human colon carcinoma cells or HT 29 human colon carcinoma cells, were cultured in a 96-well plate for 24 h, until a cell count of 3×10^3 to 6×10^3 cells per well in duplicate wells were achieved, in a well volume of 200 μL. The media was changed and 1 μL of 200× control inhibitors or compounds was added to each well. Cells are incubated for 48 h at 37° C. The cells were labeled with BrdU for 4 h at 37° C. The labeling medium was removed and in one step, the cells were fixed and the DNA was denatured (30 min at RT). Anti-BrdU-POD antibody was added to bind to the BrdU incorporated in newly synthesized cellular DNA (60-90 min at RT). The cells were washed 3× with washing buffer, substrate (100 μL) was added and the cells were incubated for 10 min at RT. The substrate reaction was stopped by adding 25 μL of 1M H2SO4. The amount of BrdU incorporated was quantified by measuring the absorbance at 450 nm using ELISA reader. IC50's were calculated using GraFit (Sigma).

SMILES | IC50 [nM]
CCOC(=O)c1cc(-c2csc(-c3ccncc3)n2)c(=O)[nH]c1CC [Example 1, Ethyl 2-ethyl-6-oxo-5-(2-(4-pyridinyl)-1,3-thiazol-4-yl)-1,6-dihydro-3-pyridinecarboxylate] | < 1000
CCOC(=O)c1cc(-c2csc(CS(=O)(=O)c3cccs3)n2)c(=O)[nH]c1CC [Example 2, Ethyl 2-ethyl-6-oxo-5-{2-[(thienylsulfonyl)methyl](1,3-thiazol-4-yl)}-1,6-dihydro-3-pyridinecarboxylate] | < 1000
CCOC(=O)c1cc(-c2csc(CS(=O)(=O)c3ccccc3)n2)c(=O)[nH]c1CC [Example 3, Ethyl 2-ethyl-6-oxo-5-{2-[(phenylsulfonyl)methyl](1,3-thiazol-4-yl)}-1,6-dihydro-3-pyridinecarboxylate] | < 1000
CCOC(=O)c1cc(-c2csc(CS(=O)(=O)c3ccccc3)n2)c(=O)[nH]c1C(C)C [Example 12, Ethyl 2-isopropyl-6-oxo-5-{2-[(phenylsulfonyl)methyl](1,3-thiazol-4-yl)}-1,6-dihydro-3-pyridinecarboxylate] | < 1000
CCOC(=O)c1cc(-c2csc(CS(=O)(=O)c3cccs3)n2)c(=O)[nH]c1C [Example 24, Ethyl 2-methyl-6-oxo-5-{2-[(2-thienylsulfonyl)methyl](1,3-thiazol-4-yl)}-1,6-dihydro-3-pyridinecarboxylate] | < 1000
CCOC(=O)c1cc(-c2csc(-c3ccnc(NCc4cccnc4)c3)n2)c(=O)[nH]c1C [Example 47, Ethyl 2-methyl-6-oxo-5-(2-(2-((3-pyridinylmethyl)amino)-4-pyridinyl)-1,3-thiazol-4-yl)-1,6-dihydro-3-pyridin carboxylate] | < 1000
CCOC(=O)c1cc(-c2csc(-c3ccnc(NCCNC(C)C)c3)n2)c(=O)[nH]c1C [Example 50, Ethyl 2-methyl-5-(2-(2-((2-((1-methylethyl)amino)ethyl)amino)-4-pyridinyl)-1,3-thiazol-4-yl)-6-oxo-1,6-dihydro-3-pyridinecarboxylate] | < 1000

Experiment: not given
Details: not given

SMILES | melting point
CCOC(=O)c1cc(-c2csc(CS(=O)(=O)c3cccs3)n2)c(=O)[nH]c1C [Example 24, Ethyl 2-methyl-6-oxo-5-{2-[(2-thienylsulfonyl)methyl](1,3-thiazol-4-yl)}-1,6-dihydro-3-pyridinecarboxylate] | 300 °C (dec.)
CCOC(=O)c1cc(-c2csc(-c3ccnc(NCc4cccnc4)c3)n2)c(=O)[nH]c1C [Example 47, Ethyl 2-methyl-6-oxo-5-(2-(2-((3-pyridinylmethyl)amino)-4-pyridinyl)-1,3-thiazol-4-yl)-1,6-dihydro-3-pyridin carboxylate] | 280 °C (dec.)
CCOC(=O)c1cc(-c2csc(-c3ccnc(NCCNC(C)C)c3)n2)c(=O)[nH]c1C [Example 50, Ethyl 2-methyl-5-(2-(2-((2-((1-methylethyl)amino)ethyl)amino)-4-pyridinyl)-1,3-thiazol-4-yl)-6-oxo-1,6-dihydro-3-pyridinecarboxylate] | 260 °C (dec.)
CCOC(=O)c1cc(-c2csc(-c3ccnc(NCCN(CC)CC)c3)n2)c(=O)[nH]c1C [Example 52, Ethyl 5-(2-(2-((2-(diethylamino)ethyl)amino)-4-pyridinyl)-1,3-thiazol-4-yl)-2-methyl-6-oxo-1,6-dihydro-3-pyridinecarboxylate] | 250 °C (dec.)
CC(=O)NCCNc1cc(-c2nc(-c3ccc(C)[nH]c3=O)cs2)ccn1 [Example 59, N-(2-{4-[4-(6-Methyl-2-oxo-1,6-dihydropyridin-3-yl)-thiazol-2-yl]-pyridin-2-ylamino}-ethyl)-acetamide] | 230 °C (dec.)
CCOC(=O)c1cc(-c2csc(-c3ccnc(NCc4ccc(OC)cc4)c3)n2)c(=O)[nH]c1C [Example 64, Ehtyl 5-{2-[2-(4-Methoxy-benzyamino)-pyridin-4-yl]-thiazol-4-yl}-2-methyl-6-oxo-1,6-dihydro-3-pyridinecarboxylate] | > 260 °C
CCOC(=O)c1cc(-c2csc(-c3ccnc(N)c3)n2)c(=O)[nH]c1C [Example 65, Ethyl 2-methyl-6-oxo-5-(2-(2-(amino)-4-pyridinyl)-1,3-thiazol-4-yl)-1,6-dihydro-3-pyridinecarboxylate] | > 260 °C
CCNCCNC(=O)c1cc(-c2csc(-c3ccnc(NCCNCC)c3)n2)c(=O)[nH]c1C [Example 66] | > 260 °C
COCc1ccc(-c2csc(-c3ccncc3)n2)c(=O)[nH]1 [Example 70, 6-(Methoxymethyl)-3-(2-(4-pyridinyl)-1,3-thiazol-4-yl)-2(1H)-pyridinone] | 249 to 254 °C
CCOC(=O)c1cc(-c2csc(-c3ccnc(NC)c3)n2)c(=O)[nH]c1C [Example 83, Ethyl 2-methyl-5-(2-(2-(methylamino)-4-pyridinyl)-1,3-thiazol-4-yl)-6-oxo-1,6-dihydro-3-pyridinecarboxylate] | 270 °C (dec.)
Cc1[nH]c(=O)c(-c2csc(-c3ccnc(NCc4ccccn4)c3)n2)cc1C(=O)NCc1ccccn1 [Example 88, 2-Methyl-6-oxo-N-(2-pyridinylmethyl)-5-(2-(2-((2-pyridinylmethyl)amino)-4-pyridinyl)-1,3-thiazol-4-yl)-1,6-dihydro-3-pyridinecarboxamide] | > 260 °C
CCOC(=O)c1cc(-c2csc(-c3ccnc(NCc4ccccn4)c3)n2)c(=O)[nH]c1C [Example 90, Ethyl 2-methyl-6-oxo-5-(2-(2-((2-pyridinylmethyl)amino)-4-pyridinyl)-1,3-thiazol-4-yl)-1,6-dihydro-3-pyridinecarboxylate] | 270 °C (dec.)
CCOC(=O)c1cc(-c2csc(-c3ccnc(NCCOc4ccccc4)c3)n2)c(=O)[nH]c1C [Example 91, Ethyl 2-methyl-6-oxo-5-(2-(2-((2-(phenyloxy)ethyl)amino)-4-pyridinyl)-1,3-thiazol-4-yl)-1,6-dihydro-3-pyridinecarboxylate] | 270 °C (dec.)
